Measured values taken from patent publication US11878961B2, “Next generation FKBP52 targeting drugs for the treatment of prostate and breast cancer” (Board of Regents, The University of Texas System, priority 2020, dated 2024).
“Also recorded” adds a separate entry of the source.

Tests used:
Assay type in all cases: cell-based
AR nuclear translocation = AR nuclear translocation by fluorescence microscopy in 22Rv1 cells; conditions: 22Rv1 prostate cancer cells, 75 μM, in the presence of hormone
Method: FIG. 24 depicts that PC257 Blocks Androgen-Dependent AR Nuclear Translocation in accordance with an illustrative embodiment.
Referring to FIG. 24, 22Rv1 prostate cancer cells were treated with or without 75 μM in the presence of hormone and AR and FKBP52 cellular localization was assessed by fluorescence microscopy.

estrogen receptor (ER) = test: ER-regulated luciferase reporter assay in T47D-KBluc cells (10 pM E2); conditions: result in words
Method: (§1) FIGS. 20A-20D depict PC257 (ZINC3424402) which inhibits FKBP52-Specific AR, GR and ER-Mediated Activity in accordance with an illustrative embodiment. (FIG. 20A) An in silico screen lead to 107 lead molecules for functional screening that lead to an initial hit molecule PC257 (ZINC3424402). (FIG. 20B) MDA-kb2 cells expressing a stably AR- and GR-response luciferase reporter was treated with 200 pM DHT with a range of PC257 (ZINC3424402) concentrations (0, 0.01, 0.1, 1, 10, 25, 50, and 100 uM) for 16-18 hours in order to test for AR-dependent activity. The graphs represent an average of 4 independent receptor mediated luciferase receptor experiments. (FIG. 20C) MDA-kb2 cells expressing a stably AR- and GR-responsive luciferase reporter was treated with 50 nM DEX with a range of PC257 (ZINC3424402) concentrations (0, 0.01, 0.1, 1, 10, 25, 50, and 100 uM) for 16-18 hours in order to test for GR-dependent activity. The graphs represent an average of 4 independent receptor mediated luciferase receptor experiments. […]
(§2) Referring to FIG. 21, hormone-induced, receptor-dependent luciferase reporter gene expression was assessed in the presence of a range of PC257 concentrations for androgen receptor (AR) and glucocorticoid receptor (GR) in MDAkb2 cells, and for progesterone receptor (PR) and estrogen receptor (ER) in T47D cells. […]

[1] = system: FKBP52-regulated AR activity; test: DHT-induced AR-dependent luciferase reporter with or without exogenous FKBP52 in fkbp52-deficient cells; conditions: presence or absence of exogenous FKBP52; fkbp52-deficient 22Rv1, HeLa and mouse embryonic fibroblast cells
Method: Referring to FIG. 22, dihydrotestosterone (DHT)-induced, androgen receptor-dependent luciferase reporter gene expression was assessed in the presence of a range of PC257 concentrations in the presence or absence of exogenous FKBP52 expression in fkbp52-deficient 22Rv1, HeLa, and mouse embryonic fibroblast cells. The IC50 values are indicated. […] PC257 is anticipated to target the PPIase pocket, a highly conserved enzymatic pocket among the FKBP family of proteins.

[2] = system: endogenous AR-dependent gene expression; test: Hormone-dependent FKBP51 and/or PSA protein levels by Western blot and densitometry; conditions: range of PC257 concentrations, normalized to GAPDH
Method: Referring to FIG. 23, hormone-dependent FKBP51 and/or PSA protein levels were assessed by Western blot and densitometry in the indicated cell lines in the presence of a range of PC257 concentrations. GAPDH was used as a loading control and the densitometry data were normalized to GAPDH.

androgen receptor (AR) = test: AR-mediated luciferase reporter assay in MDA-kb2 cells (200 pM DHT)
Method: FIGS. 19A-19B depict identification of novel FKBP52-specific hit compounds in accordance with an illustrative embodiment. Structure-based drug design methodology and in silico library screening was used to identify 107 molecules targeting the FKBP52 PPIase pocket. Molecules were assessed for the ability to inhibit AR-mediated luciferase expression at a single high concentration (25 μM) in MDA-kb2 cells. […] MDA-kb2 cells were treated with 200 pM DHT with a range of derivative concentrations. Molecules in the low μM range will be tested in GR-, PR- and ER-Mediated luciferase assays in order to assess GR-dependent activity, PR-dependent activity and to test the effects of ER-regulated activity. A detailed evaluation of all candidate molecules will be tested in multiple cellular and animal models of prostate cancer.
FIGS. 20A-20D depict PC257 (ZINC3424402) which inhibits FKBP52-Specific AR, GR and ER-Mediated Activity in accordance with an illustrative embodiment. […]
as §2

[3] = system: glucocorticoid receptor (GR); test: GR-dependent luciferase reporter assay in MDA-kb2 cells (50 nM DEX); conditions: MDAkb2 cells, result in words
Method: as §1, §2

[4] = system: progesterone receptor (PR); test: PR-dependent luciferase reporter assay in T47D cells; conditions: result in words
Method: Referring to FIG. 21, hormone-induced, receptor-dependent luciferase reporter gene expression was assessed in the presence of a range of PC257 concentrations for androgen receptor (AR) and glucocorticoid receptor (GR) in MDAkb2 cells, and for progesterone receptor (PR) and estrogen receptor (ER) in T47D cells. The IC50 values for AR, GR and PR inhibition are shown.

IC50 (androgen receptor (AR); MDA-kb2 cell reporter assay, 200 pM DHT, full dose response, read-out: IC50, inhibition of AR activity): 2000 nM
SMILES: Cc1cc(C(=O)COC(=O)Cc2n[nH]c(=O)c3ccccc23)c(C)n1C[C@H]1COc2ccccc2O1 [PC257, [2-[1-[[(3S)-2,3-Dihydro-1,4-benzodioxin-3-yl]methyl]-2,5-dimethylpyrrol-3-yl]-2-oxoethyl] 2-(4-oxo-3H-phthalazin-1-yl)acetate]
AR nuclear translocation (AR nuclear translocation): significantly inhibits AR nuclear translocation
inhibitory activity on ER (estrogen receptor (ER)): no inhibitory activity
preference for FKBP52-regulated AR activity [1]: preferentially targets FKBP52-regulated AR activity with increased potency
endogenous AR-dependent gene expression (FKBP51/PSA protein) [2]: abrogates endogenous AR-dependent gene expression
inhibition of AR activity (androgen receptor (AR); MDA-kb2 cells, luciferase reporter, result in words): inhibition of AR activity in the low micromolar range; also recorded: specifically abrogates
inhibition of GR activity [3]: specifically abrogates
inhibition of PR activity [4]: specifically abrogates
